Experimental data from article PMC7578299, “The antiviral effects of baloxavir marboxil against influenza A virus infection in ferrets” (Influenza and Other Respiratory Viruses, 2020).
Where “and” joins values, the source holds several entries; their conditions need not be identical. Equal entries are not always repeated. Where two headings read alike, the source gives them in different places.

Key:
[1] = Metabolic stability in liver microsomes, ferret; type: in vitro ADME; settings: for % Residual in liver microsome / % Residual in liver microsome Individual value: ferret; for % Residual in liver microsome: 0.5 mg/mL, 2 μmol/L, 37°C, mean of duplicates; for % Residual in liver microsome Individual value: duplicates
Description: Liver microsomes were prepared from ferrets, rats, dogs, and monkeys, as previously described. ^28 Human liver microsomes were obtained from Sekisui‐XenoTech, LLC and pooled (n = 15). Metabolic stability of the compounds in liver microsomes was tested in duplicate. Oseltamivir and cefcapene pivoxil were used as reference compounds. Liver microsomes at 0.5 mg/mL concentration (final volume of 0.2 mL) were incubated in Tris‐HCl buffer (pH 7.4), containing 50 mmol/L Tris‐HCl, 150 mmol/L KCl, 10 mmol/L MgCl2. The hydrolysis reaction was initiated by applying the test compound solution (final concentration 2 μmol/L). After incubation for 10, 20, and 30 minutes at 37°C, the hydrolysis was terminated by the addition of twofold volume of ice‐cold acetonitrile/methanol (1:1, v/v). Samples were centrifuged at 3000 rpm for 10 minutes prior to LC‐MS/MS analysis of compounds in the supernatants.

[2] = test system: cap-dependent endonuclease (CEN); parameters: method as in PMID 30316915; settings: in vitro studies; cited from earlier work
Stability in plasma, dog = type: in vitro ADME; settings: for % Residual in plasma: BXM 200 ng/mL, 37°C, mean of duplicate; for % Residual in plasma Individual value: BXM, duplicates
Description: (§1) Approximately 30 mL of blood from Japanese male healthy volunteers was collected and centrifuged to obtain plasma. Blood samples from ferrets, rats, dogs, and monkeys were collected under anesthesia and centrifuged to obtain plasma. BXM was added to reach a final concentration of 200 ng/mL to all pooled plasma samples per species. After incubation for 5, 15, and 30 minutes at 37°C, twofold volume of ice‐cold acetonitrile/methanol (1:1, v/v) was added to the plasma samples to stop further reactions, which were then centrifuged at 1800 g for 10 minutes prior to LC‐MS/MS analysis of BXM in the supernatants.

[3] = Stability in plasma, monkey; type: in vitro ADME; settings: for % Residual in plasma: BXM 200 ng/mL, 37°C, mean of duplicate; for % Residual in plasma Individual value: BXM, duplicates
Description: as §1

Stability in plasma, rat = type: in vitro ADME; settings: for % Residual in plasma: BXM 200 ng/mL, 37°C, mean of duplicate; for % Residual in plasma Individual value: BXM, duplicates
Description: as §1

[4] = Pharmacokinetic analysis in ferrets after a single oral administration of BXM; type: in vivo, ferret; settings: for concentration at 24 h: ferret, oral, read-out: C 24 h; for concentration at 24 h / AUC(0-t) / Cmax / Tmax: plasma; for AUC(0-t) / Cmax / Tmax: po
Description: One day prior to administration, group assignment was carried out taking body weight into account. Under isoflurane anesthesia, fasted ferrets (four per group) received BXM (10 or 30 mg/5 mL/kg) suspension orally using an intragastric tube. Blood samples were collected at 0.5, 1, 2, 4, 6, 8, and 24 hours after single oral administration of BXM and centrifuged to obtain plasma. The concentrations of BXA and BXM in plasma were determined by liquid chromatography‐tandem mass spectrometry (LC‐MS/MS). The lower limit of quantification of BXA and BXM in ferret plasma was 0.5 ng/mL. The pharmacokinetic parameters of BXA and BXM were calculated using non‐compartmental analysis module in Phoenix WinNonlin software (version 8.0; Certara LP) (https://onlinehelp.certara.com/phoenix/8.2/topics/nca.htm) based on a non‐compartment model analysis with uniform weighting.

[5] = Stability in plasma, ferret; type: in vitro ADME; settings: for % Residual in plasma: BXM 200 ng/mL, 37°C, mean of duplicate; for % Residual in plasma Individual value: BXM, duplicates
Description: as §1

[6] = Stability in plasma, human; type: in vitro ADME; settings: for % Residual in plasma: BXM 200 ng/mL, 37°C, mean of duplicate; for % Residual in plasma Individual value: BXM, duplicates
Description: as §1

[7] = single oral BXM 10 mg/kg, individual ferrets (Ferret-01 to Ferret-04)
[8] = single oral BXM 30 mg/kg, individual ferrets (Ferret-05 to Ferret-08)

**Q.** Which results are given for `COC(=O)OCOc1c2n(ccc1=O)N([C@@H]1c3ccccc3SCc3c1ccc(F)c3F)[C@@H]1COCCN1C2=O` [BXM, Baloxavir marboxil]?
**A.** stability in liver microsomes (in words) ([1]; ferret liver microsomes): stable; % Residual in liver microsome ([1]; 10 min): 98.5%; % Residual in liver microsome ([1]; 20 min): 98.1%; % Residual in liver microsome ([1]; 30 min): 90.8%; % Residual in liver microsome Individual value ([1]; 10 minutes): 97.0% and 99.9%; % Residual in liver microsome Individual value ([1]; 20 minutes): 98.3% and 97.9%; % Residual in liver microsome Individual value ([1]; 30 minutes): 87.4% and 94.2%; CEN inhibitory activity, fold lower than that of BXA [2]: ≥ 200 fold; % Residual in plasma (Stability in plasma, dog; 10 min): 91.6%; % Residual in plasma (Stability in plasma, dog; 20 min): 79.7%; % Residual in plasma (Stability in plasma, dog; 30 min): 75.6%; % Residual in plasma Individual value (Stability in plasma, dog; 10 minutes): 97.0% and 86.3%; % Residual in plasma Individual value (Stability in plasma, dog; 20 minutes): 79.0% and 80.5%; % Residual in plasma Individual value (Stability in plasma, dog; 30 minutes): 74.9% and 76.3%; % Residual in plasma ([3]; 10 min): 82.9%; % Residual in plasma ([3]; 20 min): 71.8%; % Residual in plasma ([3]; 30 min): 55.5%; % Residual in plasma Individual value ([3]; 10 minutes): 81.5% and 84.4%; % Residual in plasma Individual value ([3]; 20 minutes): 71.3% and 72.3%; % Residual in plasma Individual value ([3]; 30 minutes): 56.3% and 54.7%; % Residual in plasma (Stability in plasma, rat; 10 min): 0.0%; % Residual in plasma (Stability in plasma, rat; 20 min): 0.0%; % Residual in plasma (Stability in plasma, rat; 30 min): 0.0%; % Residual in plasma Individual value (Stability in plasma, rat; 10 minutes): 0.0%; % Residual in plasma Individual value (Stability in plasma, rat; 20 minutes): 0.0%; % Residual in plasma Individual value (Stability in plasma, rat; 30 minutes): 0.0%; concentration at 24 h ([4]; 10 mg/kg, single oral BXM 10 mg/kg, 5% SDS water vehicle, mean of four ferrets): 28.6 ± 30.4 ng/mL; concentration at 24 h ([4]; 10 mg/kg, single oral BXM 10 mg/kg, mean of four ferrets): 50.1 ± 53.3 nM; concentration at 24 h ([4]; 30 mg/kg, single oral BXM 30 mg/kg, 5% SDS water vehicle, mean of four ferrets): 36.1 ± 12.3 ng/mL; concentration at 24 h ([4]; 30 mg/kg, single oral BXM 30 mg/kg, mean of four ferrets): 63.1 ± 21.5 nM; AUC(0-t) ([4]; 10 mg/kg, single oral BXM 10 mg/kg, 5% SDS water vehicle, mean of four ferrets, read-out: AUC0-24 h): 715 ± 758 ng·h/mL; Cmax ([4]; 10 mg/kg, single oral BXM 10 mg/kg, 5% SDS water vehicle, mean of four ferrets, read-out: C max): 165 ± 179 ng/mL; Tmax ([4]; 10 mg/kg, single oral BXM 10 mg/kg, 5% SDS water vehicle, mean of four ferrets, read-out: T max): 1.13 ± 0.63 h; AUC(0-t) ([4]; 10 mg/kg, single oral BXM 10 mg/kg, mean of four ferrets, read-out: AUC0-24 h): 1.25 ± 1.33 µM·h; Cmax ([4]; 10 mg/kg, single oral BXM 10 mg/kg, mean of four ferrets, read-out: C max): 289 ± 312 nM; AUC(0-t) ([4]; 30 mg/kg, single oral BXM 30 mg/kg, 5% SDS water vehicle, mean of four ferrets, read-out: AUC0-24 h): 1260 ± 150 ng·h/mL; Cmax ([4]; 30 mg/kg, single oral BXM 30 mg/kg, 5% SDS water vehicle, mean of four ferrets, read-out: C max): 298 ± 88 ng/mL; Tmax ([4]; 30 mg/kg, single oral BXM 30 mg/kg, 5% SDS water vehicle, mean of four ferrets, read-out: T max): 0.875 ± 0.25 h; AUC(0-t) ([4]; 30 mg/kg, single oral BXM 30 mg/kg, individual ferrets (Ferret-05 to Ferret-08), read-out: AUC0-24hr, individual data): 1450 ng·h/mL; Cmax ([4]; 30 mg/kg, single oral BXM 30 mg/kg, individual ferrets (Ferret-05 to Ferret-08), read-out: Cmax, individual data): 392 ng/mL; Tmax ([4]; 30 mg/kg, single oral BXM 30 mg/kg, individual ferrets (Ferret-05 to Ferret-08), read-out: Tmax, individual data): 1 h; AUC(0-t) ([4]; 30 mg/kg, single oral BXM 30 mg/kg, mean of four ferrets, read-out: AUC0-24 h): 2.21 ± 0.25 µM·h; Cmax ([4]; 30 mg/kg, single oral BXM 30 mg/kg, mean of four ferrets, read-out: C max): 522 ± 154 nM; C 24 h ([4]; single oral BXM 10 mg/kg, 5% SDS water vehicle, mean of four ferrets): 28.6 ng/mL; AUC0-24hr, individual data [4, 7]: 174 ng·h/mL and 539 ng·h/mL and 318 ng·h/mL and 1830 ng·h/mL; C24hr, individual data [4, 7]: 3.59 ng/mL and 35.0 ng/mL and 6.75 ng/mL and 69.0 ng/mL; Cmax, individual data [4, 7]: 101 ng/mL and 79.2 ng/mL and 48.6 ng/mL and 431 ng/mL; Tmax, individual data [4, 7]: 0.500 h and 2.00 h; C 24 h ([4]; single oral BXM 30 mg/kg, 5% SDS water vehicle, mean of four ferrets): 36.1 ng/mL; AUC0-24hr, individual data [4, 8]: 1200 ng·h/mL and 1110 ng·h/mL and 1290 ng·h/mL; C24hr, individual data [4, 8]: 22.7 ng/mL and 48.5 ng/mL and 28.7 ng/mL and 44.3 ng/mL; Cmax, individual data [4, 8]: 353 ng/mL and 214 ng/mL and 233 ng/mL; Tmax, individual data [4, 8]: 0.500 h; % Residual in plasma ([5]; 10 min): 94.7%; % Residual in plasma ([5]; 20 min): 90.4%; % Residual in plasma ([5]; 30 min): 77.4%; % Residual in plasma Individual value ([5]; 10 minutes): 94.0% and 95.4%; % Residual in plasma Individual value ([5]; 20 minutes): 90.0% and 90.9%; % Residual in plasma Individual value ([5]; 30 minutes): 77.3% and 77.5%; % Residual in plasma ([6]; 10 min): 92.3%; % Residual in plasma ([6]; 20 min): 78.6%; % Residual in plasma ([6]; 30 min): 63.9%; % Residual in plasma Individual value ([6]; 10 minutes): 92.7% and 91.8%; % Residual in plasma Individual value ([6]; 20 minutes): 80.0% and 77.1%; % Residual in plasma Individual value ([6]; 30 minutes): 65.3% and 62.6%
